The values that follow come from patent US20220079993A1, “NON-NATURALLY OCCURRING THERMOGENIC ADIPOCYTES, METHODS OF MAKING, AND METHODS OF USE THEREOF” (University of Georgia Research Foundation, Inc., priority 2019, published 2022).

Assay [1] has as its system GC. The assay can be described thus: Lipolysis assay (free glycerol) after forskolin. Format: cell-based, human. Here is the method: ADSCs were seeded at 5000 cell/cm^2 in 12-well plates, grown for 5 days and then induced to differentiate into GC for 20 days. Prior to the assay, cells were washed in DPBS twice and then incubated with DMEM with 2% fatty-acid free BSA (Santa Crus, sc-500949) and Triascin C (5 μM). Cells were treated with forskolin (20 μM) for indicated time periods and supernatant samples were collected. Lipolysis assay was performed with free glycerol reagent (Sigma, F6428-40ML), according to manufacturer instructions.

Assay [2] concerns beige adipocytes. Briefly: Lipolysis validation assays of primary hits at three concentrations. The conditions noted are these: Homo sapiens, Adipocyte, 24 h; for activity at 2.2 µM: Conc. 2.2 µM; for activity at 6.7 µM: Conc. 6.7 µM; for activity at 20 µM: Conc. 20 µM; for activity at 2200 µM: Conc. 2.2 mM. In kind it is cell-based, human. The procedure, abridged: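 ADSC-derived adipocytes, differentiated 20 days, incubated in DMEM with 2% fatty-acid-free BSA and Triacsin C (5 μM). Glycerol release measured after 24 h compound treatment at three concentrations, normalised to untreated control as percent; 2-fold cut-offs defined activators and inhibitors.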

Where two headings read alike, the source gives them in different places.

Regarding `C=C[C@@]1(C)CC(=O)[C@]2(O)[C@@]3(C)[C@@H](O)CCC(C)(C)[C@@H]3[C@H](O)[C@H](OC(C)=O)[C@@]2(C)O1` [Forskolin], the “Increase in free glycerol in the media” value in assay [1] (4 hours of FSK (20 μM)) is recorded as ~2 fold; in assay [1] (8 hours of FSK (20 μM)), ~5 fold. Also, the activity at 2.2 µM in assay [2] (read-out: % of Control (2)) is 394%; in assay [2] (read-out: % of Control (4)), 247%. In addition, the activity at 6.7 µM in assay [2] (read-out: % of Control (1)) was determined as 311%; in assay [2] (read-out: % of Control (2)), 362%; in assay [2] (read-out: % of Control (3)) it was 241%; in assay [2] (read-out: % of Control (4)) it was 242%. For the same molecule, the activity at 20 µM amounted to 417% in assay [2] (read-out: % of Control (1)), 330% in assay [2] (read-out: % of Control (2)), 253% in assay [2] (read-out: % of Control (3)) and 267% in assay [2] (read-out: % of Control (4)). The results for the activity at 2200 µM in assay [2] (read-out: % of Control (1)) and in assay [2] (read-out: % of Control (3)) were 417% and 252%, respectively.
